Measured values reported in patent US20240269154A1, “CANNABIDIOL FOR USE IN THE TREATMENT OF PAIN RESULTING FROM AN INDOLEAMINE 2,3-DIOXYGENASE-1 (IDO1) RELATED DISEASE” (Assistance Publique - Hopitaux de Paris, priority 2021, published 2024).
“Also recorded” adds a separate entry of the source.

System: patients suffering from indolent systemic mastocytosis (ISM) or mast cell activation syndrome (MCAS) or having hypertryptasemia
Assay: Numeric rating scale (NRS) pain score in 15 patients treated with CBD capsules
Type: in vivo, human
Conditions: for reduction of pain / average pain score (NRS): 15 patients; for reduction of pain: NRS; for average pain score (NRS): D0 average about 7.2
Description: Fifteen patients suffering from indolent systemic mastocytosis (ISM) or mast cell activation syndrome (MCAS) or having hypertryptasemia with no positive result from classic treatments were treated with a daily dose from 15 to 400 mg of cannabidiol (CBD) by capsule.
The pain was measured using numeric rating scale (NRS) pain score, between 0 (no pain) and 10 (worst pain imaginable).

[1] = after one month of treatment (M1)
[2] = after three months of treatment (M3)

## C=C(C)[C@@H]1CCC(C)=C[C@H]1c1c(O)cc(CCCCC)cc1O [CBD, cannabidiol]
M1 versus D0
  reduction of pain: about 2 points
M3 versus D0
  reduction of pain: about 3 points
[1]
  average pain score (NRS): 5.1
  relief of pain observed: 13 of 15
[2]
  average pain score (NRS): 3.8
  relief of pain observed: 14 of 15
Individual patient, other pain treatment stopped under CBD
  pain treatment withdrawal: stop stelara; also recorded: stop NSAID; also recorded: stop nefopam; also recorded: stop memantine,; also recorded: stop opioids; also recorded: stop methadone,; also recorded: stop methadone; also recorded: stop ketamine; also recorded: stop amitriptyline
